Reference: a melting point compilation (Tetko et al.; mined from patent text by program, amines drawn as free bases though some values may be those of a salt)

SMILES	melting point
CC(=O)Nc1ccc(OCC(O)CNC(C)(C)C)c(C2=NNC(=O)CC2)c1 (stereo not given)	102 to 109 °C
O=C1Nc2cc(Cl)c(Cl)cc2C1=O	271 to 272 °C
COCN1CC(CN)c2c[nH]c3cccc(c23)C1=O (stereo not given)	160 to 163 °C
N#CC1(O)COc2ccccc2OC1	108 to 110 °C
CN1CCN(C2=Nc3cc(C(F)(F)F)ccc3N3CCc4cccc2c43)CC1	177 to 180 °C
O=CN1CCC(O)(c2ccccc2Cc2ccccc2)CC1	171 to 174 °C
N#Cc1c[nH]c2ncnc(N3CCCCC3)c12	209 to 211 °C
CCCc1ccccc1OCCCOc1cccc(OC(=CC(=O)O)C(=O)O)c1CC	104 to 105 °C
COc1cc(F)ccc1CCn1ccn2c(=O)cc(-c3ccncn3)nc12	196 to 198 °C
Cc1ccc(C(=O)NC(NC(=S)Nc2cccc([N+](=O)[O-])c2)c2ccccc2)cc1 (stereo not given)	170 to 172 °C
O=CNNc1ccc(NC(=S)N2CC=CC2)cc1	218 to 220 °C
COC(=O)C(c1ccc(Cl)cc1)c1c(Cl)cc(-n2ncc(=O)[nH]c2=O)cc1Cl (stereo not given)	121 °C
Cc1cc(-n2cnnc2)cc(C=O)c1N	250 to 252 °C
COc1ccc(/C(C)=C/c2ccc(CO)cc2)cc1C(C)(C)C	88 to 90 °C
OCc1ccccc1CCCc1cc2c(cc1O)CCO2	110 to 112 °C
O=C(NC=Cc1ccc(O)cc1)c1ccc(Cl)cc1	243 to 244 °C
CC(C)(C)OC(=O)Nc1sc(Cl)nc1Cl	111 to 112 °C
C=CCNc1c([N+](=O)[O-])cc(C(=O)OC)c(Nc2ccc(I)cc2F)c1F	153 to 154 °C
COC(=O)/C=C/C=C(\C)c1ccc(OC)cc1	84 to 86 °C
CCOC(=O)C(C)(O)c1ccncc1F (stereo not given)	56 to 60 °C
Nc1ncnc2c1c(-c1cccc3[nH]ncc13)nn2Cc1oc2ccccc2c(=O)c1-c1ccccc1	248 to 252 °C
Clc1ccc(-c2nc(I)c[nH]2)cc1Cl	206 to 207 °C
C=CCN1C2CCC3C1CCC2N3C(c1ccc(C(=O)N2CCCCC2)cc1)c1cccc(OC)c1 (stereo not given)	94 to 96 °C
N#Cc1cccc(NCC(=O)N2CCC(Cc3ccc(F)cc3)CC2)c1	138 to 142 °C
N#Cc1ccc(-c2cnc3cnc(-c4ccc(O)cc4)nc3c2)cc1	313 to 314 °C

SMILES	melting point
CC1=NN(C)c2nc(C)c(CCCl)c(=O)n2C1	180 °C
Cc1ccc(OC(C)(C)C=O)c(C#N)c1	60 to 64 °C
COc1cc(C=C(C#N)C(=O)Nc2cccc(Cl)c2)cc(Cl)c1O	225 to 226 °C
CN(C)Cc1cc(C(=O)c2cccs2)cc(C(C)(C)C)c1O	132 to 134 °C
CC(C)NC1=NS(=O)(=O)c2sc(Cl)cc2N1	281 to 283 °C
Cc1nc(-n2cc(CCc3ccccc3)nn2)sc1C(=O)NCc1cccnc1	114 to 116 °C
CC(=O)N1C(=O)C(C(=O)c2ccco2)c2ccccc21 (stereo not given)	138 °C
O=S(=O)(c1cccs1)N(CCO)c1cccc2cc(-c3nccs3)[nH]c12	170 to 171 °C
O=C(N[C@@H](Cc1ccccc1)[C@H](O)CCl)OCc1ccccc1	151 to 153 °C
OCc1cn(Cc2ccc(OCc3ccccc3)cc2)nc1OCc1ccc(OCc2ccccc2)cc1	128 to 129 °C
O=C(Nc1ccccc1)N(c1ccccc1)c1ccccc1	131 °C
O=C(O)CCCNC(=O)CC1=C(n2nc(-c3c(-c4ccccc4)nn4ccccc34)ccc2=O)CCCC1	92.5 to 93 °C
O=C(Oc1cc[nH]c(=O)c1)c1ccc([N+](=O)[O-])cc1	255 to 256 °C
CC(=O)OCC(=O)C1C(C)CC2C3CC(Cl)C4=CC(=O)C=CC4(C)C3=CCC21C (stereo not given)	181 °C
CC(C)(C)OC(=O)N=C(NCCCCNC(=O)[C@H](Cc1ccccc1)NC(=O)CCCC(=O)O)NC(=O)OC(C)(C)C	86 °C
CS(=O)(=O)c1ccc(-c2cnn(-c3ccc(F)c(F)c3)c(=O)c2Oc2ccc(Br)cc2)cc1	196 to 199 °C
Nc1ccc(C2CCc3ccccc3O2)cc1 (stereo not given)	85 to 87 °C
O=C1CCC(c2ccc(-c3ccc(Cl)cc3)cc2)=NO1	190 to 192 °C
COCCC(=O)N[C@H]1CC[C@H](CCN2CCN(c3nccc4ccoc34)CC2)CC1	146 °C
Oc1cccc(CCc2nc3ccccc3s2)c1	129 to 130 °C
O=C1C(=O)c2ccccc2C2=C1SCC(CN1CCC3(CC1)OCCO3)O2 (stereo not given)	202 to 204 °C
CCOC(=O)c1sc2ccc(Cl)cc2c1C	92.5 to 94 °C
O=c1c(N2CCN(c3ccncc3)CC2)cn(Cc2ccccc2)c2cc(O)ccc12	141 to 146 °C
Cc1c(CC2CCc3c(c4ccccc4n3C)C2=O)ncn1S(=O)(=O)N(C)C (stereo not given)	122 to 124 °C
Cn1c(CC(=O)O)cc2ccc3ccsc3c(=O)c21	185 to 188 °C
